{"source": "paper PMC5218480", "about": "(PLoS ONE, 2017)", "test_system": "MV-4-11 cells", "experiment": "Gene expression microarray analysis (Affymetrix PrimeView) and GSEA", "assay_type": "cell-based, human", "set-up": "RFU PODN (11730768_x_at) / Fold change /veh PODN (11730768_x_at) / RFU LINC00158 (11744669_a_at) / Fold change /veh LINC00158 (11744669_a_at) / RFU DUSP10 (11751237_a_at) / Fold change /veh DUSP10 (11751237_a_at) / RFU ID3 (11757404_x_at) / Fold change /veh ID3 (11757404_x_at) / RFU PLEKHG5 (11737974_s_at) / Fold change /veh PLEKHG5 (11737974_s_at) / RFU LRRC4B (11730491_at) / Fold change /veh LRRC4B (11730491_at) / RFU GIMAP4 (11747438_a_at) / Fold change /veh GIMAP4 (11747438_a_at) / RFU KRT8 (11758183_x_at) / Fold change /veh KRT8 (11758183_x_at) / RFU CNN1 (11734310_a_at) / Fold change /veh CNN1 (11734310_a_at) / RFU VPS37D (11726825_at) / Fold change /veh VPS37D (11726825_at) / RFU C10orf10 (11716522_x_at) / Fold change /veh C10orf10 (11716522_x_at) / RFU KIR2DL2 /// KIR2DL4 /// KIR2DL5A /// KIR2DL5B /// KIR2DS1 /// KIR2DS2 /// KIR2DS3 /// KIR2DS4 /// KIR3DL3 /// KIR3DL3 /// KIR3DS1 (11738374_at) / Fold change /veh KIR2DL2 /// KIR2DL4 /// KIR2DL5A /// KIR2DL5B /// KIR2DS1 /// KIR2DS2 /// KIR2DS3 /// KIR2DS4 /// KIR3DL3 /// KIR3DL3 /// KIR3DS1 (11738374_at) / RFU C1QL1 (11718748_at) / Fold change /veh C1QL1 (11718748_at) / RFU TMPRSS4 (11747572_a_at) / Fold change /veh TMPRSS4 (11747572_a_at) / RFU HAMP (11756126_x_at) / Fold change /veh HAMP (11756126_x_at) / RFU RNFT2 (11725882_a_at) / Fold change /veh RNFT2 (11725882_a_at) / RFU NR4A2 (11747474_a_at) / Fold change /veh NR4A2 (11747474_a_at) / RFU ABCC12 (11746883_a_at) / Fold change /veh ABCC12 (11746883_a_at) / RFU TMEM136 (11760407_x_at) / Fold change /veh TMEM136 (11760407_x_at) / RFU CLDN22 /// WWC2 (11732394_at) / Fold change /veh CLDN22 /// WWC2 (11732394_at) / RFU HLA-DPB1 (11760878_x_at) / Fold change /veh HLA-DPB1 (11760878_x_at) / RFU SPINT1 (11716480_a_at) / Fold change /veh SPINT1 (11716480_a_at) / RFU GAP43 (11754022_s_at) / Fold change /veh GAP43 (11754022_s_at) / RFU A4GNT (11735810_at) / Fold change /veh A4GNT (11735810_at) / RFU PRB3 (11715151_x_at) / Fold change /veh PRB3 (11715151_x_at) / RFU TUBB4B (11761932_at) / Fold change /veh TUBB4B (11761932_at) / RFU CAPN14 (11732068_a_at) / Fold change /veh CAPN14 (11732068_a_at) / RFU TMCC2 (11721928_a_at) / Fold change /veh TMCC2 (11721928_a_at) / RFU IRGQ (11745062_a_at) / Fold change /veh IRGQ (11745062_a_at) / RFU FAM174B (11720279_a_at) / Fold change /veh FAM174B (11720279_a_at) / RFU TMPRSS4 (11748680_a_at) / Fold change /veh TMPRSS4 (11748680_a_at) / RFU FAM212B (11763350_a_at) / Fold change /veh FAM212B (11763350_a_at) / RFU PLEKHG5 (11743358_a_at) / Fold change /veh PLEKHG5 (11743358_a_at) / RFU ZSCAN30 (11745921_a_at) / Fold change /veh ZSCAN30 (11745921_a_at) / RFU CMKLR1 (11741424_a_at) / Fold change /veh CMKLR1 (11741424_a_at) / RFU LOC101060620 /// MAPK8IP1 (11723275_at) / Fold change /veh LOC101060620 /// MAPK8IP1 (11723275_at) / RFU SPTSSB (11747773_x_at) / Fold change /veh SPTSSB (11747773_x_at) / RFU PRSS12 (11739890_at) / Fold change /veh PRSS12 (11739890_at) / RFU BIN1 (11741810_x_at) / Fold change /veh BIN1 (11741810_x_at) / RFU WNT11 (11732464_a_at) / Fold change /veh WNT11 (11732464_a_at) / RFU C10orf10 (11716521_a_at) / Fold change /veh C10orf10 (11716521_a_at) / RFU C5orf56 (11738089_at) / Fold change /veh C5orf56 (11738089_at) / RFU CYB561 (11721691_x_at) / Fold change /veh CYB561 (11721691_x_at) / RFU ANKRD19P (11752326_a_at) / Fold change /veh ANKRD19P (11752326_a_at) / RFU OR2T12 /// OR2T33 /// OR2T8 (11738714_s_at) / Fold change /veh OR2T12 /// OR2T33 /// OR2T8 (11738714_s_at) / RFU VCAN (11748164_a_at) / Fold change /veh VCAN (11748164_a_at) / RFU JSRP1 (11732532_at) / Fold change /veh JSRP1 (11732532_at) / RFU KRTAP10-11 (11738290_x_at) / Fold change /veh KRTAP10-11 (11738290_x_at) / RFU MYO3A (11730013_a_at) / Fold change /veh MYO3A (11730013_a_at) / RFU EBF3 (11725865_a_at) / Fold change /veh EBF3 (11725865_a_at) / RFU CAMK2N1 (11719241_x_at) / Fold change /veh CAMK2N1 (11719241_x_at) / RFU C5orf56 (11738088_a_at) / Fold change /veh C5orf56 (11738088_a_at) / RFU OLFML3 (11715873_a_at) / Fold change /veh OLFML3 (11715873_a_at) / RFU LOC100653217 /// NTM (11731650_a_at) / Fold change /veh LOC100653217 /// NTM (11731650_a_at) / RFU MAPK11 (11762145_a_at) / Fold change /veh MAPK11 (11762145_a_at) / RFU FIZ1 (11724087_x_at) / Fold change /veh FIZ1 (11724087_x_at) / RFU OASL (11726364_x_at) / Fold change /veh OASL (11726364_x_at) / RFU SOX15 (11748057_x_at) / Fold change /veh SOX15 (11748057_x_at) / RFU CD79A (11719716_a_at) / Fold change /veh CD79A (11719716_a_at) / RFU HIST1H1D (11736915_at) / Fold change /veh HIST1H1D (11736915_at) / RFU CASKIN2 (11723855_a_at) / Fold change /veh CASKIN2 (11723855_a_at) / RFU LOC730098 (11760151_x_at) / Fold change /veh LOC730098 (11760151_x_at) / RFU OR4N2 (11742367_at) / Fold change /veh OR4N2 (11742367_at) / RFU PRRT2 (11749266_a_at) / Fold change /veh PRRT2 (11749266_a_at) / RFU SNX32 (11753110_a_at) / Fold change /veh SNX32 (11753110_a_at) / RFU CDHR5 (11726645_a_at) / Fold change /veh CDHR5 (11726645_a_at) / RFU RCAN1 (11760418_a_at) / Fold change /veh RCAN1 (11760418_a_at) / RFU FAM167A (11723789_a_at) / Fold change /veh FAM167A (11723789_a_at) / RFU FAM26E (11764081_at) / Fold change /veh FAM26E (11764081_at) / RFU ISYNA1 (11749810_s_at) / Fold change /veh ISYNA1 (11749810_s_at) / RFU ACY1 (11761880_at) / Fold change /veh ACY1 (11761880_at) / RFU 11764098_at / Fold change /veh 11764098_at / RFU SAMD14 (11745864_x_at) / Fold change /veh SAMD14 (11745864_x_at) / RFU NPB (11741838_a_at) / Fold change /veh NPB (11741838_a_at) / RFU TMPRSS6 (11731388_a_at) / Fold change /veh TMPRSS6 (11731388_a_at) / RFU KRTAP10-2 (11738614_at) / Fold change /veh KRTAP10-2 (11738614_at) / RFU ARHGAP8 /// PRR5-ARHGAP8 (11727945_x_at) / Fold change /veh ARHGAP8 /// PRR5-ARHGAP8 (11727945_x_at) / RFU KRTAP5-7 /// NADSYN1 (11734609_at) / Fold change /veh KRTAP5-7 /// NADSYN1 (11734609_at) / RFU RASL12 (11751679_a_at) / Fold change /veh RASL12 (11751679_a_at) / RFU CDKN2B (11736163_a_at) / Fold change /veh CDKN2B (11736163_a_at) / RFU PRF1 (11729649_at) / Fold change /veh PRF1 (11729649_at) / RFU, ZNF638 /// ZNF638-IT1 / Fold change vs veh, ZNF638 /// ZNF638-IT1 / RFU, PANK3 / Fold change vs veh, PANK3 / RFU, SH3YL1 / Fold change vs veh, SH3YL1 / RFU, ZEB2 / Fold change vs veh, ZEB2 / RFU, NRIP1 / Fold change vs veh, NRIP1 / RFU, PTTG1IP / Fold change vs veh, PTTG1IP / RFU, CAPN2 / Fold change vs veh, CAPN2 / RFU, MED14 / Fold change vs veh, MED14 / RFU, SNORA58 / Fold change vs veh, SNORA58 / RFU, C1orf63 / Fold change vs veh, C1orf63 / RFU, LRRFIP1 / Fold change vs veh, LRRFIP1 / RFU, NDUFAF7 / Fold change vs veh, NDUFAF7 / RFU, SLC12A2 / Fold change vs veh, SLC12A2 / RFU, IBTK / Fold change vs veh, IBTK / RFU, ESF1 / Fold change vs veh, ESF1 / Fold change vs veh, TMEM50B / RFU, TAOK1 / Fold change vs veh, TAOK1 / RFU, ACBD3 / Fold change vs veh, ACBD3 / RFU, TMA16 / Fold change vs veh, TMA16 / RFU, RWDD3 / Fold change vs veh, RWDD3 / RFU, BCAT1 / Fold change vs veh, BCAT1 / RFU, EDEM3 / Fold change vs veh, EDEM3 / RFU, TMEM33 / Fold change vs veh, TMEM33 / RFU, WDR75 / Fold change vs veh, WDR75 / RFU, AHCTF1 / Fold change vs veh, AHCTF1 / RFU, TFRC / Fold change vs veh, TFRC / RFU, ZDHHC17 / Fold change vs veh, ZDHHC17 / RFU, NOM1 / Fold change vs veh, NOM1 / RFU, ARL8B / Fold change vs veh, ARL8B / RFU, ZBTB11 / Fold change vs veh, ZBTB11 / RFU, TAMM41 / Fold change vs veh, TAMM41 / RFU, KIAA1704 /// LOC100996395 / Fold change vs veh, KIAA1704 /// LOC100996395 / RFU, ING1 / Fold change vs veh, ING1 / RFU, TRMT61B / Fold change vs veh, TRMT61B / RFU, FUBP3 / Fold change vs veh, FUBP3 / RFU, TP53 / Fold change vs veh, TP53 / RFU, TNKS2 / Fold change vs veh, TNKS2 / RFU, ZFP14 / Fold change vs veh, ZFP14 / RFU, ACTR2 / Fold change vs veh, ACTR2 / RFU, PPP3R1 / Fold change vs veh, PPP3R1 / RFU, PIK3R1 / Fold change vs veh, PIK3R1 / RFU, HNRNPA1 / Fold change vs veh, HNRNPA1 / RFU, RNF170 / Fold change vs veh, RNF170 / RFU, ZNF28 / Fold change vs veh, ZNF28 / RFU, RNGTT / Fold change vs veh, RNGTT / RFU, OGT / Fold change vs veh, OGT / RFU, BRD1 / Fold change vs veh, BRD1 / RFU, MARS / Fold change vs veh, MARS / RFU, ZNF655 / Fold change vs veh, ZNF655 / RFU, FAHD1 / Fold change vs veh, FAHD1 / RFU, BDP1 / Fold change vs veh, BDP1 / RFU, LRRCC1 / Fold change vs veh, LRRCC1 / RFU, ARID1A / Fold change vs veh, ARID1A / RFU, ZNF146 / Fold change vs veh, ZNF146 / RFU, ZNF330 / Fold change vs veh, ZNF330 / RFU, GPN3 / Fold change vs veh, GPN3 / RFU, C9orf123 / Fold change vs veh, C9orf123 / RFU, N4BP2L2 / Fold change vs veh, N4BP2L2 / RFU, ARFIP1 / Fold change vs veh, ARFIP1 / RFU, FAM179B / Fold change vs veh, FAM179B / RFU, BCL10 / Fold change vs veh, BCL10 / RFU, UHRF1BP1L / Fold change vs veh, UHRF1BP1L / RFU, BET1 / Fold change vs veh, BET1 / RFU, CNOT2 / Fold change vs veh, CNOT2 / RFU, ZNF268 / Fold change vs veh, ZNF268 / Fold change vs veh, ZNF507 / RFU, DGCR2 / Fold change vs veh, DGCR2 / RFU, WDSUB1 / Fold change vs veh, WDSUB1 / Fold change vs veh, HSP90B1 /// MIR3652 / RFU, ADSS / Fold change vs veh, ADSS / RFU, GK / Fold change vs veh, GK / RFU, ZNF148 / Fold change vs veh, ZNF148 / RFU, TAF9 / Fold change vs veh, TAF9 / RFU, SLC1A5 / Fold change vs veh, SLC1A5 / RFU, SLMO2 / Fold change vs veh, SLMO2 / RFU, ABCC4 / Fold change vs veh, ABCC4 / RFU, LOC101060439 /// RAP1B / Fold change vs veh, LOC101060439 /// RAP1B / RFU, RFX7 / Fold change vs veh, RFX7 / RFU, GTPBP10 / Fold change vs veh, GTPBP10 / RFU, CNEP1R1 / Fold change vs veh, CNEP1R1 / RFU, BIVM-ERCC5 /// ERCC5 / Fold change vs veh, BIVM-ERCC5 /// ERCC5 / RFU, ILF3 / Fold change vs veh, ILF3 / RFU 11762660_at / Fold change /veh 11762660_at / RFU VCAN (11757783_s_at) / Fold change /veh VCAN (11757783_s_at) / RFU DDX43 (11728927_at) / Fold change /veh DDX43 (11728927_at) / RFU KRT8 (11758188_x_at) / Fold change /veh KRT8 (11758188_x_at) / RFU NKD1 (11759106_at) / Fold change /veh NKD1 (11759106_at) / RFU SRD5A1 (11742802_a_at) / Fold change /veh SRD5A1 (11742802_a_at) / RFU TPSAB1 /// TPSB2 (11721975_s_at) / Fold change /veh TPSAB1 /// TPSB2 (11721975_s_at) / RFU GSTM3 (11746129_a_at) / Fold change /veh GSTM3 (11746129_a_at) / RFU IL23R (11737362_x_at) / Fold change /veh IL23R (11737362_x_at) / RFU TMEM51 (11727254_a_at) / Fold change /veh TMEM51 (11727254_a_at) / RFU PIWIL2 (11732686_x_at) / Fold change /veh PIWIL2 (11732686_x_at) / RFU ORM1 (11744905_x_at) / Fold change /veh ORM1 (11744905_x_at) / RFU CCDC152 (11743942_at) / Fold change /veh CCDC152 (11743942_at) / RFU ECM1 (11717891_a_at) / Fold change /veh ECM1 (11717891_a_at) / RFU IL23R (11748794_a_at) / Fold change /veh IL23R (11748794_a_at) / RFU TNFAIP8L3 (11732012_x_at) / Fold change /veh TNFAIP8L3 (11732012_x_at) / RFU MBOAT4 (11741988_at) / Fold change /veh MBOAT4 (11741988_at) / RFU 11764193_at / Fold change /veh 11764193_at / RFU TMEM53 (11763286_at) / Fold change /veh TMEM53 (11763286_at) / RFU MAGEB2 (11727129_at) / Fold change /veh MAGEB2 (11727129_at) / RFU TMEM200A (11744735_a_at) / Fold change /veh TMEM200A (11744735_a_at) / RFU CCDC152 (11751479_a_at) / Fold change /veh CCDC152 (11751479_a_at) / RFU FAM211A (11726209_a_at) / Fold change /veh FAM211A (11726209_a_at) / RFU RGS16 (11746705_a_at) / Fold change /veh RGS16 (11746705_a_at) / RFU VCAN (11755009_s_at) / Fold change /veh VCAN (11755009_s_at) / RFU RHOB (11743442_s_at) / Fold change /veh RHOB (11743442_s_at) / RFU RGS16 (11720943_a_at) / Fold change /veh RGS16 (11720943_a_at) / RFU RGS16 (11720944_at) / Fold change /veh RGS16 (11720944_at) / RFU, VPS4B / Fold change vs veh, VPS4B / RFU, CREB1 / Fold change vs veh, CREB1 / RFU, DNAJC13 / Fold change vs veh, DNAJC13 / RFU, GNAQ / Fold change vs veh, GNAQ / RFU, CDK5R1 / Fold change vs veh, CDK5R1 / RFU, ZRANB3 / Fold change vs veh, ZRANB3 / RFU, CUL4A / Fold change vs veh, CUL4A / RFU, CCNY / Fold change vs veh, CCNY / RFU, UFL1 / Fold change vs veh, UFL1 / RFU, COG3 / Fold change vs veh, COG3 / RFU, DIAPH2 / Fold change vs veh, DIAPH2 / RFU, SKA2 / Fold change vs veh, SKA2 / RFU, AFF3 / Fold change vs veh, AFF3 / RFU, LMF1 / Fold change vs veh, LMF1 / RFU, IPO11 / Fold change vs veh, IPO11 / RFU, DFFB / Fold change vs veh, DFFB / RFU, FOXP1 / Fold change vs veh, FOXP1 / RFU, CARD8 / Fold change vs veh, CARD8 / RFU, STRN3 / Fold change vs veh, STRN3 / RFU, ADK / Fold change vs veh, ADK / RFU, RASSF2 / Fold change vs veh, RASSF2 / RFU, WIPF1 / Fold change vs veh, WIPF1 / RFU, LARP1B / Fold change vs veh, LARP1B / RFU, RASA1 / Fold change vs veh, RASA1 / RFU, RB1 / Fold change vs veh, RB1 / RFU, PPFIA1 / Fold change vs veh, PPFIA1 / RFU, MAT2A / Fold change vs veh, MAT2A / RFU, CCT5 / Fold change vs veh, CCT5 / RFU, WDR92 / Fold change vs veh, WDR92 / RFU, CUX1 / Fold change vs veh, CUX1 / RFU, TTC7A / Fold change vs veh, TTC7A / RFU, TMEM135 / Fold change vs veh, TMEM135 / RFU, DEPTOR / Fold change vs veh, DEPTOR / RFU, CPM / Fold change vs veh, CPM / RFU, DNAJB6 / Fold change vs veh, DNAJB6 / RFU, CACNA2D3 / Fold change vs veh, CACNA2D3 / RFU, DTX4 / Fold change vs veh, DTX4 / RFU, TFCP2 / Fold change vs veh, TFCP2 / RFU, GMCL1 /// GMCL1P1 / Fold change vs veh, GMCL1 /// GMCL1P1 / RFU, AEBP2 / Fold change vs veh, AEBP2 / RFU, SNHG1 /// SNORD22 /// SNORD25 /// SNORD26 /// SNORD27 /// SNORD28 /// SNORD29 /// SNORD31 / Fold change vs veh, SNHG1 /// SNORD22 /// SNORD25 /// SNORD26 /// SNORD27 /// SNORD28 /// SNORD29 /// SNORD31 / Fold change (Aza/veh), C12orf56 (ProbeSet 11735607_a_at) / Fold change (ACY-1035/veh), C12orf56 (ProbeSet 11735607_a_at) / Fold change (Aza/veh), FGFR1OP (ProbeSet 11751329_s_at) / Fold change (ACY-1035/veh), FGFR1OP (ProbeSet 11751329_s_at) / Fold change (Aza/veh), VPS36 (ProbeSet 11739960_a_at) / Fold change (ACY-1035/veh), VPS36 (ProbeSet 11739960_a_at) / RFU SYPL1 (11715823_x_at) / Fold change /veh SYPL1 (11715823_x_at) / RFU IGFBP7 (11715501_s_at) / Fold change /veh IGFBP7 (11715501_s_at) / RFU REEP3 (11722064_at) / Fold change /veh REEP3 (11722064_at) / RFU IGLL1 (11728026_x_at) / Fold change /veh IGLL1 (11728026_x_at): dose or concentration left out as unconfirmed", "details": "ProbeSet 11720270_a_at; LIST B", "data": [{"smiles": "Nc1ncn([C@@H]2O[C@H](CO)[C@@H](O)[C@H]2O)c(=O)n1", "note": "[azacitidine]", "values": [{"measurement": "RFU, IBTK", "result": 397.77, "unit": "RFU"}]}]}
